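Five compound concentrations were applied to cells in 96-well plates for 48 hours; endpoints were derived by simple linear interpolation of the resulting dose-response curve. GI50: concentration for 50% inhibition of growth. TGI denotes the concentration required for complete inhibition of growth.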
Legend:
Assay in all cases: growth of human tumour cells (NCI), 48 h
SK-OV-3 ovarian = system: SK-OV-3 ovarian
SK-MEL-2 melanoma = system: SK-MEL-2 melanoma
ACHN renal = system: ACHN renal
CCRF-CEM leukemia = system: CCRF-CEM leukemia
MALME-3M melanoma = system: MALME-3M melanoma
LOX IMVI melanoma = system: LOX IMVI melanoma
MCF7 breast = system: MCF7 breast
RPMI-8226 leukemia = system: RPMI-8226 leukemia
CAKI-1 renal = system: CAKI-1 renal
MDA-MB-435 = system: MDA-MB-435
BT-549 breast = system: BT-549 breast

| Compound | TGI (SK-OV-3 ovarian) [µM] | TGI (SK-MEL-2 melanoma) [µM] | TGI (ACHN renal) [µM] | TGI (CCRF-CEM leukemia) [µM] | TGI (MALME-3M melanoma) [µM] | TGI (LOX IMVI melanoma) [µM] | TGI (MCF7 breast) [µM] | GI50 (RPMI-8226 leukemia) [µM] | TGI (RPMI-8226 leukemia) [µM] | GI50 (CCRF-CEM leukemia) [µM] | TGI (CAKI-1 renal) [µM] | GI50 (MALME-3M melanoma) [µM] | GI50 (SK-OV-3 ovarian) [µM] | GI50 (MDA-MB-435) [µM] | TGI (MDA-MB-435) [µM] | GI50 (SK-MEL-2 melanoma) [µM] | GI50 (BT-549 breast) [µM] | TGI (BT-549 breast) [µM] | GI50 (CAKI-1 renal) [µM] | GI50 (MCF7 breast) [µM] |
| --- | --- | --- | --- | --- | --- | --- | --- | --- | --- | --- | --- | --- | --- | --- | --- | --- | --- | --- | --- | --- |
| O=S(O)CCCSSSCCCS(=O)O | > 100 | > 100 | > 100 | > 100 | > 100 | > 100 |  |  |  |  |  |  |  |  |  |  |  |  |  |  |
| CN(C)c1cccc(OC(=O)NCCCl)c1 | > 100 | > 100 |  | > 100 | > 100 | > 100 | > 100 | > 100 | > 100 | 94.6 | > 100 | > 100 |  |  |  |  |  |  |  |  |
| c1csc(-c2ccc(CNc3c4ccccc4nc4ccccc34)cc2)c1 | 29.8 | 4.79 |  | 3.91 |  |  |  | 1.85 | 4.8 | 1.28 | 5.61 |  | 11 | 0.322 | 1.09 | 2.11 | 3.87 | 14.1 | 1.46 |  |
| COC(=O)c1sc2c(c1C(=O)OC)C(=NC(C)(C)C)SC2=NC(C)(C)C | 55.7 | 33.1 | 33.1 | 33.5 | 37.8 | 38.6 | 33.1 |  | 41.4 |  | 32.6 |  |  |  | 34.6 |  |  | 35.4 |  |  |
| c1ccc2c(c1)SCCc1cn[nH]c1-2 | > 100 | > 100 |  | > 100 | > 100 | > 100 | > 100 |  |  |  | > 100 |  |  |  |  |  |  |  |  |  |
| Nc1ccc(Cn2ccc3c4c(N)nc(N)nc4ccc32)cc1 | 25.4 | 5.15 | 6.58 | 2.71 | 7.04 | 1.21 | 14.3 |  | > 100 |  | 18 |  |  |  | 6.15 |  |  | 16.4 |  |  |
| N#C/C(=C\c1ccc([N+](=O)[O-])o1)c1n[nH]c(Cc2ccccc2)n1 | 16.5 | 4.34 | 4.11 | 1.81 | 4.4 | 3.85 | 7.05 |  | 1.4 |  | 3.96 |  |  |  | 6.92 |  |  | 8.46 |  |  |
| COCCNCc1ccc(-c2cc3nccc(Oc4ccc(NC(=O)C5(C(=O)Nc6ccc(F)cc6)CC5)cc4F)c3s2)nc1 | 3.78 | 3.6 |  | 7.06 |  |  | 3.58 | 2.05 | 5.07 | 2.55 | 4.83 |  | 1.93 | 1.31 | 2.68 | 1.82 |  |  | 2.08 | 1.22 |
| S=c1[nH]n2c(COc3ccc(Cl)cc3)nnc2s1 | > 100 | > 100 | > 100 |  | > 100 |  | > 100 |  | > 100 |  | > 100 |  |  |  | > 100 |  |  |  |  |  |
| O=C1C(c2c(O)[nH]c3ccc(Cl)cc23)=Nc2ccccc21 | 11.2 | > 26.3 | 20.3 | > 100 | > 58.4 | > 79.7 | > 22 |  | > 100 |  | > 71.6 |  |  |  | > 100 |  |  | > 100 |  |  |
| NNC(=O)CCc1ccc2ccc3ccccc3c2c1 | > 100 | > 100 | > 100 | > 100 | > 100 | > 100 | > 100 |  | > 100 |  | > 100 |  |  |  | > 100 |  |  | > 100 |  |  |
| Cc1cccc2c1Sc1ccccc1C2NC(=O)CN(C)C (stereo not given) | > 100 |  | > 100 | > 100 |  | > 100 |  |  | > 100 |  |  |  |  |  |  |  |  |  |  |  |
| CSCC(CO)NC(=O)/C=C/c1c(C)[nH]c(=O)[nH]c1=O (stereo not given) | > 875 | > 875 |  | > 875 | > 875 | > 875 | > 609 |  | > 875 |  | > 87.5 |  |  |  |  |  |  |  |  |  |
| Cc1ccc(C(C)C)c(OCC(=O)N/N=C/c2c[nH]c3ccc(Br)cc23)c1 | 12.7 | 7.22 | 16.5 | 7 | 21.8 | 16.4 | 11.2 |  | 7.32 |  | 11.5 |  |  |  | 2.93 |  |  | 18.7 |  |  |
| NNC(=O)c1cc([N+](=O)[O-])ccc1NC(=O)C12CC3CC(CC(C3)C1)C2 | 42.4 |  | 36.1 | 24.9 | 56.1 | 20.1 | > 100 |  | 35.8 |  | > 100 |  |  |  | 48.5 |  |  | > 100 |  |  |
| Clc1cc(OCc2nn3c(Cc4ccccc4)nnc3s2)c(Cl)cc1OCc1nn2c(Cc3ccccc3)nnc2s1 | 82.1 | > 100 | > 100 | > 100 | > 100 | > 100 | > 100 |  | 30.1 |  | > 100 |  |  |  | > 100 |  |  | 95.9 |  |  |
| O=C(Sc1n[nH]c(=O)[nH]c1=O)c1cccc2nc3ccccc3nc12 | > 100 | > 100 | > 100 | > 100 | 24.8 | > 100 | > 100 |  | > 100 |  | > 100 |  |  |  | 29 |  |  | > 100 |  |  |
| CO/C=C1\OC(=O)C=C1OC | > 100 | > 100 |  | > 100 | > 100 | > 100 | > 100 |  | > 100 |  | > 100 |  |  |  |  |  |  |  |  |  |
| CN(c1ccccc1)c1nc(=[N+]2CCCC2)ss1 | > 100 | > 100 | > 100 | > 100 | > 100 |  |  |  | > 100 |  | > 100 |  |  |  |  |  |  |  |  |  |
| CC(=O)OC1CC(OC2C(O)CC(OC3C(O)CC(OC4CCC5(C)C(CCC6C5CCC5(C)C(C7=CC(=O)OC7)CCC65O)C4)OC3C)OC2C)OC(C)C1OC1OC(CO)C(O)C(O)C1O (stereo not given) | 0.186 | 0.245 | 0.0942 | > 100 | 0.112 | 0.0685 | 0.536 |  | 7.43 |  | < 0.0321 |  |  |  | 0.172 |  |  | 0.0984 |  |  |
| CC1(C)N=C(c2ccccc2)SC12S[C@@H]1CCCC[C@H]1S2 | > 100 | > 100 | > 100 | > 100 | > 100 | > 100 | > 100 |  | > 100 |  | > 100 |  |  |  | > 100 |  |  | > 100 |  |  |
| COc1cc(NCCC(=O)O)c2ncccc2c1 |  | > 100 | > 100 | > 100 | > 100 | > 100 |  |  |  |  |  |  |  |  | > 100 |  |  | > 100 |  |  |

Reference: PubChem BioAssay (NCI)
